Experimental data from patent publication US20130164384A1, “METHODS OF TREATING BOWEL DISEASES BY ADMINISTERING A BOWEL CLEANSER AND AN ANTIBIOTIC” (Salix Pharmaceuticals, Ltd., priority 2008, published 2013).

Test system: subjects with dIBS
Assay: Study of three rifaximin doses in subjects with dIBS: adequate relief of IBS symptoms and bloating
Assay type: in vivo, human
Conditions: for Adequate Relief of Bloating: Success / Adequate Relief of IBS Symptoms: Failure / Adequate Relief of IBS Symptoms: Success / Adequate Relief of Bloating: Failure: end of treatment phase
Procedure: This example relates to a study of three rifaximin doses in subjects with dIBS. Subjects were randomized to receive daily BID doses of rifaximin 275 mg, 550 mg, or 1100 mg for 14 days. A fifth group of subjects received rifaximin 550 mg BID for a period of 28 days. Subjects were questioned on the relief of overall IBS symptoms and bloating. […] The analyses defined success as a “yes” response to questions regarding adequate relief of SGA or IBS-B in at least 2 out of the final 3 weeks of the double-blind treatment period.
Baseline severity was determined using 7-point Lickert scales during screening for Abdominal Pain/Discomfort and Bloating, and the number, type (normal, hard, loose) and urgency of bowel movements.
Duration of effect was assessed in a 12 week follow-up period. Subjects that responded in the 4 week double-blind treatment period were followed for an additional 3 months. Fifty-three (53) subjects from the 550 mg 2 w and 59 subjects from the placebo-treated groups participated in this study phase.
Subjects recorded the following information on dIBS symptoms daily throughout the duration of the study: • Number of normal stools/day; • Number of hard and lumpy stools/day; • Number of loose or watery stools/day; • Number of loose or watery stools/day with the symptom of urgency; • How bothersome is abdominal pain and discomfort? [7-point response scale: 0 (not at all) to 6 (a very great deal)]; • How bothersome is bloating? [(7-point response scale: 0 (not at all) to 6 (a very great deal)].
Weekly summary variables were computed by averaging the recorded values over all pre-treatment days or over the seven days preceding the time point of interest for post-treatment assessments. For example, baseline included Days −10 to 0, Week 1 included Days 1 to 7, Week 2 included Days 8 to 14, and so forth through Week 16. Changes from baseline variables were computed for each weekly summary score.

[1] = RFX 550 2 w (550 mg BID 14 days), had screening colonoscopy, Average Bloating Discomfort Score at Baseline >4
[2] = RFX 550 4 w (550 mg BID 28 days), Had a Screening Colonoscopy: No
[3] = RFX 550 4 w (550 mg BID 28 days), Had a Screening Colonoscopy: Yes
[4] = RFX 550 4 w (550 mg BID 28 days), Screening Colonoscopy <=26 Days
[5] = RFX 550 4 w (550 mg BID 28 days), Screening Colonoscopy >26 Days
[6] = RFX 550 4 w (550 mg BID 28 days), had screening colonoscopy, Average Abdominal Pain Discomfort Score at Baseline <=4
[7] = RFX 550 4 w (550 mg BID 28 days), had screening colonoscopy, Average Abdominal Pain Discomfort Score at Baseline >4
[8] = RFX 550 4 w (550 mg BID 28 days), had screening colonoscopy, Average Bloating Discomfort Score at Baseline <=4
[9] = RFX 550 4 w (550 mg BID 28 days), had screening colonoscopy, Average Bloating Discomfort Score at Baseline >4
[10] = RFX 1100 2 w (1100 mg BID 14 days), Had a Screening Colonoscopy: No
[11] = RFX 1100 2 w (1100 mg BID 14 days), Had a Screening Colonoscopy: Yes
[12] = RFX 1100 2 w (1100 mg BID 14 days), Screening Colonoscopy <=26 Days
[13] = RFX 1100 2 w (1100 mg BID 14 days), Screening Colonoscopy >26 Days
[14] = RFX 1100 2 w (1100 mg BID 14 days), had screening colonoscopy, Average Abdominal Pain Discomfort Score at Baseline <=4
[15] = RFX 1100 2 w (1100 mg BID 14 days), had screening colonoscopy, Average Abdominal Pain Discomfort Score at Baseline >4
[16] = RFX 1100 2 w (1100 mg BID 14 days), had screening colonoscopy, Average Bloating Discomfort Score at Baseline <=4
[17] = RFX 1100 2 w (1100 mg BID 14 days), had screening colonoscopy, Average Bloating Discomfort Score at Baseline >4

In the case of `COC1/C=C/OC2(C)Oc3c(C)c(O)c4c(O)c(c5c(nc6cc(C)ccn65)c4c3C2=O)NC(=O)/C(C)=C\C=C\C(C)C(O)C(C)C(O)C(C)C(OC(C)=O)C1C` [RFX, (2S,16Z,18E,20S,21S,22R,23R,24R,25S,26S,27S,28E)-5,6,21,23,25 Pentahydroxy-27-methoxy-2,4,11,16,20,22,24,26-octamethyl-2,7-(epoxypentadeca-(1,11,13)trienimino)benzofuro(4,5-e)pyrido(1,2,-a)benzimidazole-1,15(2H)-dione,25-acetate], the “Adequate Relief of Bloating: Success” value [1] is reported as 8 (50.0%) n (%), the “Adequate Relief of IBS Symptoms: Failure” value [1] is reported as 8 (50.0%) n (%) and the “Adequate Relief of IBS Symptoms: Success” value [1] is reported as 8 (50.0%) n (%). The “Adequate Relief of Bloating: Failure” value [2] was 37 (64.9%) n (%), the “Adequate Relief of Bloating: Success” value [2] was 20 (35.1%) n (%) and the “Adequate Relief of IBS Symptoms: Failure” value [2] was 35 (61.4%) n (%). The “Adequate Relief of IBS Symptoms: Success” value [2] was 22 (38.6%) n (%), the “Adequate Relief of Bloating: Failure” value [3] was 23 (56.1%) n (%) and the “Adequate Relief of Bloating: Success” value [3] was 18 (43.9%) n (%). The “Adequate Relief of IBS Symptoms: Failure” value [3] was 22 (53.7%) n (%), the “Adequate Relief of IBS Symptoms: Success” value [3] was 19 (46.3%) n (%) and the “Adequate Relief of Bloating: Failure” value [4] was 12 (48.0%) n (%). For the same molecule, the “Adequate Relief of Bloating: Success” value [4] was 13 (52.0%) n (%), the “Adequate Relief of IBS Symptoms: Failure” value [4] was 11 (44.0%) n (%) and the “Adequate Relief of IBS Symptoms: Success” value [4] was 14 (56.0%) n (%). The “Adequate Relief of Bloating: Failure” value [5] was 11 (68.8%) n (%), the “Adequate Relief of Bloating: Success” value [5] was 5 (31.3%) n (%) and the “Adequate Relief of IBS Symptoms: Failure” value [5] was 11 (68.8%) n (%). For the same molecule, the “Adequate Relief of IBS Symptoms: Success” value [5] was 5 (31.3%) n (%), the “Adequate Relief of Bloating: Failure” value [6] was 19 (59.4%) n (%) and the “Adequate Relief of Bloating: Success” value [6] was 13 (40.6%) n (%). The “Adequate Relief of IBS Symptoms: Failure” value [6] was 19 (59.4%) n (%), the “Adequate Relief of IBS Symptoms: Success” value [6] was 13 (40.6%) n (%) and the “Adequate Relief of Bloating: Failure” value [7] was 4 (44.4%) n (%). For the same molecule, the “Adequate Relief of Bloating: Success” value [7] was 5 (55.6%) n (%), the “Adequate Relief of IBS Symptoms: Failure” value [7] was 3 (33.3%) n (%) and the “Adequate Relief of IBS Symptoms: Success” value [7] was 6 (66.7%) n (%). For the same molecule, the “Adequate Relief of Bloating: Failure” value [8] was 15 (57.7%) n (%), the “Adequate Relief of Bloating: Success” value [8] was 11 (42.3%) n (%) and the “Adequate Relief of IBS Symptoms: Failure” value [8] was 15 (57.7%) n (%). The “Adequate Relief of IBS Symptoms: Success” value [8] was 11 (42.3%) n (%), the “Adequate Relief of Bloating: Failure” value [9] was 8 (53.3%) n (%) and the “Adequate Relief of Bloating: Success” value [9] was 7 (46.7%) n (%). The “Adequate Relief of IBS Symptoms: Failure” value [9] was 7 (46.7%) n (%), the “Adequate Relief of IBS Symptoms: Success” value [9] was 8 (53.3%) n (%) and the “Adequate Relief of Bloating: Failure” value [10] was 30 (66.7%) n (%). For the same molecule, the “Adequate Relief of Bloating: Success” value [10] was 15 (33.3%) n (%), the “Adequate Relief of IBS Symptoms: Failure” value [10] was 27 (60.0%) n (%) and the “Adequate Relief of IBS Symptoms: Success” value [10] was 18 (40.0%) n (%). The “Adequate Relief of Bloating: Failure” value [11] was 31 (57.4%) n (%), the “Adequate Relief of Bloating: Success” value [11] was 23 (42.6%) n (%) and the “Adequate Relief of IBS Symptoms: Failure” value [11] was 31 (57.4%) n (%). For the same molecule, the “Adequate Relief of IBS Symptoms: Success” value [11] was 23 (42.6%) n (%), the “Adequate Relief of Bloating: Failure” value [12] was 20 (55.6%) n (%) and the “Adequate Relief of Bloating: Success” value [12] was 16 (44.4%) n (%). The “Adequate Relief of IBS Symptoms: Failure” value [12] was 19 (52.8%) n (%), the “Adequate Relief of IBS Symptoms: Success” value [12] was 17 (47.2%) n (%) and the “Adequate Relief of Bloating: Failure” value [13] was 11 (61.1%) n (%). For the same molecule, the “Adequate Relief of Bloating: Success” value [13] was 7 (38.9%) n (%), the “Adequate Relief of IBS Symptoms: Failure” value [13] was 12 (66.7%) n (%) and the “Adequate Relief of IBS Symptoms: Success” value [13] was 6 (33.3%) n (%). The “Adequate Relief of Bloating: Failure” value [14] was 22 (50.0%) n (%), the “Adequate Relief of Bloating: Success” value [14] was 22 (50.0%) n (%) and the “Adequate Relief of IBS Symptoms: Failure” value [14] was 23 (52.3%) n (%). For the same molecule, the “Adequate Relief of IBS Symptoms: Success” value [14] was 21 (47.7%) n (%), the “Adequate Relief of Bloating: Failure” value [15] was 9 (90.0%) n (%) and the “Adequate Relief of Bloating: Success” value [15] was 1 (10.0%) n (%). For the same molecule, the “Adequate Relief of IBS Symptoms: Failure” value [15] was 8 (80.0%) n (%), the “Adequate Relief of IBS Symptoms: Success” value [15] was 2 (20.0%) n (%) and the “Adequate Relief of Bloating: Failure” value [16] was 21 (47.7%) n (%). The “Adequate Relief of Bloating: Success” value [16] was 23 (52.3%) n (%), the “Adequate Relief of IBS Symptoms: Failure” value [16] was 21 (47.7%) n (%) and the “Adequate Relief of IBS Symptoms: Success” value [16] was 23 (52.3%) n (%). The “Adequate Relief of Bloating: Failure” value [17] was 10 (100.0%) n (%), the “Adequate Relief of Bloating: Success” value [17] was 0 n (%) and the “Adequate Relief of IBS Symptoms: Failure” value [17] was 10 (100.0%) n (%). The “Adequate Relief of IBS Symptoms: Success” value [17] was 0 n (%), the “Likelihood of treatment effect with a purgative prior to rifaximin versus no cleanser” value (purgative prior to treatment) was “much more likely to have a treatment effect” and the “Rate of success in relief of symptoms with screening colonoscopy (GI cleanser) prior to rifaximin” value (subjects who had a screening colonoscopy) was “higher rate of success in relief of symptoms”.
